Test results from US20240343704A1, “HALO-SUBSTITUTED AMINO PYRIDINE COMPOUNDS AS INHIBITORS OF THE HAEMATOPOIETIC PROGENITOR KINASE 1 (HPK1)” (priority 2021, published 2024).

These compounds were tested against T1, Recombinant (1-346) HPK1 (h) (Homo sapiens, UniProt Q92918) (assay: HPK1 Human STE Kinase Enzymatic Radiometric Assay). Conditions: read-out: HPK1 IC50 nM Range*.
T1 construct: Recombinant (1-346) HPK1 (h) is incubated with 8 mM MOPS pH 7.0
T1 sequence (Q92918 1-346): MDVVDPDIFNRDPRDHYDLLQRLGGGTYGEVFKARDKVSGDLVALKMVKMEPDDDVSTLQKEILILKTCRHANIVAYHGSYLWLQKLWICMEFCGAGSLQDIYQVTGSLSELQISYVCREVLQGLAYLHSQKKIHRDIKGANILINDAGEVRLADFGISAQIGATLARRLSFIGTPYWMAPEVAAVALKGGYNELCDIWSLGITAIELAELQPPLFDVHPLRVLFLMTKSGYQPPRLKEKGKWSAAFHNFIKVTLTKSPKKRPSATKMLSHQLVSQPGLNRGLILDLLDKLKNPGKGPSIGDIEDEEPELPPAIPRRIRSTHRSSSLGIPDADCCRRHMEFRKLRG
Type: biochemical
Procedure: A stock solution of 10 mM of test compound is prepared in DMSO. The compound plate was prepared by 3-fold and 9-point serial dilutions. […] The reaction is initiated by The addition of the Mg/ATP mix. After incubation for 40 minutes at RT, the reaction is stopped by the addition of phosphoric acid to a concentration of 0.5%.

| IC50 [nM] | Compound |
| --- | --- |
| 11 to 100 | Nc1nc(F)c(-c2ccc(N3CCOCC3)c(CN3CCCC3)c2)cc1-c1cc2c(cc1F)C(=O)NCC2 [I-492, 6-(2-amino-6-fluoro-5-(4-morpholino-3-(pyrrolidin-1-ylmethyl)phenyl)pyridin-3-yl)-7-fluoro-3,4-dihydroisoquinolin-1(2H)-one] |
| 11 to 100 | CN(C)Cc1cc(-c2cc(-c3ccc4c(c3)CCNC4=O)c(N)nc2F)ccc1N1CCS(=O)(=O)CC1 [I-493, 6-(2-amino-5-(3-((dimethylamino)methyl)-4-(1,1-dioxidothiomorpholino)phenyl)-6-fluoropyridin-3-yl)-3,4-dihydroisoquinolin-1(2H)-one] |
| 11 to 100 | CN(C)Cc1cc(-c2cc(-c3cc4c(cc3F)C(=O)NCC4)c(N)nc2F)ccc1N1CCN(C2CC2)CC1 [I-494, 6-(2-amino-5-(4-(4-cyclopropylpiperazin-1-yl)-3-((dimethylamino)methyl)phenyl)-6-fluoropyridin-3-yl)-7-fluoro-3,4-dihydroisoquinolin-1(2H)-one] |
| 11 to 100 | CN(C)Cc1cc(-c2cc(-c3ccc4c(c3)CCNC4=O)c(N)nc2F)ccc1N1CCN(C2CC2)CC1 [I-495, 6-(2-amino-5-(4-(4-cyclopropylpiperazin-1-yl)-3-((dimethylamino)methyl)phenyl)-6-fluoropyridin-3-yl)-3,4-dihydroisoquinolin-1(2H)-one] |
| 11 to 100 | Nc1nc(F)c(-c2ccc(N3CCOCC3)c(CN3CCOCC3)c2)cc1-c1ccc2c(c1)CCNC2=O [I-496, 6-(2-amino-6-fluoro-5-(4-morpholino-3-(morpholinomethyl)phenyl)pyridin-3-yl)-3,4-dihydroisoquinolin-1(2H)-one] |
| 11 to 100 | Nc1nc(F)c(-c2ccc(N3CCOCC3)c(CN3CCOCC3)c2)cc1-c1cc2c(cc1F)C(=O)NCC2 [I-497, 6-(2-amino-6-fluoro-5-(4-morpholino-3-(morpholinomethyl)phenyl)pyridin-3-yl)-7-fluoro-3,4-dihydroisoquinolin-1(2H)-one] |
| 11 to 100 | CN(C)Cc1cc(-c2cc(-c3cc4c(cc3F)C(=O)NCC4)c(N)nc2F)ccc1N1CCS(=O)(=O)CC1 [I-498, 6-(2-amino-5-(3-((dimethylamino)methyl)-4-(1,1-dioxidothiomorpholino)phenyl)-6-fluoropyridin-3-yl)-7-fluoro-3,4-dihydroisoquinolin-1(2H)-one] |
| 0.1 to 10 | C[C@@H]1CN(c2ccc(-c3cc(-c4ccc5c(=O)[nH]cc(F)c5c4)c(N)nc3F)cc2)C[C@H](C)N1C [I-499, 6-(2-amino-6-fluoro-5-(4-((3R,5S)-3,4,5-trimethylpiperazin-1-yl)phenyl)pyridin-3-yl)-4-fluoroisoquinolin-1(2H)-one] |
| 11 to 100 | Cc1nc2cc(-c3cc(-c4ccc(N5C[C@@H](C)N(C)[C@@H](C)C5)cc4)c(F)nc3N)ccc2c(=O)[nH]1 [I-500, 7-(2-amino-6-fluoro-5-(4-((3R,5S)-3,4,5-trimethylpiperazin-1-yl)phenyl)pyridin-3-yl)-2-methylquinazolin-4(3H)-one] |
| 11 to 100 | Cc1nc2cc(-c3cc(-c4ccc(N5C[C@@H](C)N(C)[C@@H](C)C5)cc4)c(F)nc3N)cc(F)c2c(=O)[nH]1 [I-501, 7-(2-amino-6-fluoro-5-(4-((3R,5S)-3,4,5-trimethylpiperazin-1-yl)phenyl)pyridin-3-yl)-5-fluoro-2-methylquinazolin-4(3H)-one] |
| 0.1 to 10 | Cc1c[nH]c(=O)c2ccc(-c3cc(-c4ccc(N5CCOCC5)c(CN(C)C)c4)c(F)nc3N)cc12 [I-502, 6-(2-amino-5-(3-((dimethylamino)methyl)-4-morpholinophenyl)-6-fluoropyridin-3-yl)-4-methylisoquinolin-1(2H)-one] |
| 11 to 100 | Cc1cc2cc(-c3cc(-c4ccc(C5CCOCC5)c(CN(C)C)c4)c(F)nc3N)cc(F)c2c(=O)[nH]1 [I-504, 6-(2-amino-5-(3-((dimethylamino)methyl)-4-(tetrahydro-2H-pyran-4-yl)phenyl)-6-fluoropyridin-3-yl)-8-fluoro-3-methylisoquinolin-1(2H)-one] |
